Experiments:
[1] = test system: gastric mucosal damage induced by ethanolic HCl; assay: Gastritis model induced with ethanolic-HCl; type: in vivo, SD male rat; conditions: po, 1 h, rat; for inhibition in vivo at 0.3 mg/kg: 0.3 mg/kg p.o.; for inhibition in vivo at 1 mg/kg: 1 mg/kg p.o.; for inhibition in vivo at 3 mg/kg: 3 mg/kg p.o.
Procedure: Effect on the Gastritis Model Induced with Ethanolic-HCl.
SD male rat(250-350 g) was fasted for 24 hours. The compound was orally administered in suspension of 5% HPMC, and after 1 hour 1.5 mL of 150 mM HCl-80% ethanol was orally administered. After 1 hour the rat was sacrifieced and the stomach was extracted and the ulcer index was measured. The ulcer index was shown by the area of hemorrhage lesion(Mizui, T, et al., Jpn. J. Pharmacol. 1983, 33: 939).

gastric mucus secretion = assay: Measurement of gastric mucus; type: in vivo, SD male rat; conditions: oral, rat
Procedure: Measurement of Gastric Mucus
The compound was orally administered into SD male rat (200~250 g). After 1 hour the stomach was extracted. The extracted stomach was immediately washed with 10 mL of cold 0.25M sucrose solution. The gastric mucosa was dyed with 0.1% alcian blue solution for 2 hours. After dyeing, the gastric mucosa was washed with 0.25M sucrose solution twice for 15 minutes and for 45 minutes. The dyed gastric mucosa was treated with 10 mL of 30% dioctyl sodium sulfosuccinate solution for 2 hours to extract dyed mucus completely and optical density of aqueous phase was measured spectrophotometrically at 655 nm. The amount of mucus in the gastric mucosa was shown as the amount of alcian blue after calibration (Kitagawa, H., et al., Drug Res. 1986, 36: 1240-1244).

cyclooxygenase [2] = assay: Cyclooxygenase activity in HUVEC (PGF1 α synthesis); type: cell-based
Procedure: (§1) Measurment of Cyclooxygenase Actvity
(§2) After addition of the compound to cultured HUVEC, the HUVEC was incubated at 37° C., for 30 minutes, then arachidonic acid (final concentration: 30 .rho.M) was added, and the HUVEC was additionally incubated at 37° C. for 15 minutes. The culture medium was taken, and the activity of cyclooxygenase for 6-Keto-PGF1 α or PGE2 was measured by radioimmunoassay (Mitchell, J. A., et al., Pro. Natl. Acad. Sci. USA 1994, 90: 11693-11697).
**SC200 (ug/mL) : Concentration at increasing generation of […]

5-lipoxygenase = target: T1, 5-lipoxygenase (Rattus norvegicus, UniProt P12527); assay: 5-lipoxygenase activity (LTB4 in A23187-stimulated peritoneal neutrophils); type: cell-based
T1 construct: endogenous in cells; host or cells: casein-elicited rat peritoneal neutrophils
T1 sequence (P12527 1-673): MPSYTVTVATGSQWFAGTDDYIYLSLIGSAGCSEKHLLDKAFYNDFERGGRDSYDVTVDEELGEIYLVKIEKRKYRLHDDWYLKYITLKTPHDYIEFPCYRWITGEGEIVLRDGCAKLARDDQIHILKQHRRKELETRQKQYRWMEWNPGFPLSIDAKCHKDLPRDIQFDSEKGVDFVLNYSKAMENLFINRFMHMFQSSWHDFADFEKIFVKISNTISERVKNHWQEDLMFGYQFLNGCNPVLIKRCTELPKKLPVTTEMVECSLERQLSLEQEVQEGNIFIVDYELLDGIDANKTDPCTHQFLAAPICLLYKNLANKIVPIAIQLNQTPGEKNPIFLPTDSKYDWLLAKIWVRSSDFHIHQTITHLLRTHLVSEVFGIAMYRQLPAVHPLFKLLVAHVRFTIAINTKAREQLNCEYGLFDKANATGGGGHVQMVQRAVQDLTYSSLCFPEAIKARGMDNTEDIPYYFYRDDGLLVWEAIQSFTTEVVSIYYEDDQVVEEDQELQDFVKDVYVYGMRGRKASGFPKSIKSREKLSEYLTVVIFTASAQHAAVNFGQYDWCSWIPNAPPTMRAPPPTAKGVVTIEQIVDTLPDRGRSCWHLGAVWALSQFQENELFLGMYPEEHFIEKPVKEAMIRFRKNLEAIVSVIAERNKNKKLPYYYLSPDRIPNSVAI
Procedure: Measurement of 5-lipooxygenase Activity
Modified Safayhi et al.'s method (Safayhi, H., et al., Biochem. Pharmacol. 1985, 34: 2691) was used to this experiment. Peritoneal neutrophil was separated from the rat which was treated with casein solution. The compound was added to 10^7 cells (5×10^6 cells/mL, 2 mL) of neutrophil after 2 minutes Ca^2+ -ionophore, A23187 (1 μg/mL) was added and the mixture was incubared at 37° C. for 10 minutes. The reaction mixture was centrifuged and the supermatant was taken up. The amount of LTB4 in the supermatant was measured by radioimmunoassay.

[3] = test system: chronic gastritis induced with acetic acid; assay: Model of chronic gastritis induced with acetic acid; type: in vivo, SD male rat; conditions: once a day for 21 days, rat
Procedure: Experiment on the Model of Chronic Gastritis Induced with Acetic Acid
From the next day of the surgical operation, the compound was orally administered once a day for 21 days. After 21 days, the stomach was extracted under ether anesthesis, dipped in 1% formalin solution and the area of gastric lesion was measured. […] An pathological tissue autopsy was carried out for the prepared specimen.

TNBS-induced colitis [4] = assay: TNBS-induced colitis model, intracolonic (rectal) administration; type: in vivo, male SD rats; conditions: once a day for 13 days, rat
Procedure: (§3) Experiment on the Model of Inflammatory Bowl Diseases Induced with TNBS
(§4) The modified method of Shibata et al. (Dig. Endosc. 1993, 5: 13) was used. 7 week-aged male SD rats were fasted for a day, and the rats were put under anesthesia and canula (diameter 3 mm) was inserted into the anus to the depth of 8 cm. 25 mg/mL of TNBS (Trinitrobenzene sulfonic acid) dissolved in 50% ethanol solution was injected to each rat and the rats were positioned at feature of tail up for 1 minute. The solution flowing out was removed and the rats were once washed with 1.5 mL of saline solution. After colitis was induced, the compound was administered orally or intracolonically once a day for 13 days. For control, mesalazine (5-amino salicylic acid) was used for oral administration and prednisolone was used for rectal administration. At 14th day of experiment, each group of the rats were put under ether anesthesis, the colon was extracted and the degree of adhesion and extension of the large intestine were measured and their lesion scores were recorded. After 1% formalin solution was injected to the cavity of the extracted colon to inflate, the both ends of it were bonded with each other and it was all-fixed in 1% formalin solution for 2 hours. The all-fixed colon was cut to lengthy direction and washed to remove surrounding fat tissues and connective fissaes. After cecum was removed, the weight of the colon and the rectum was measured, and the area of ulcer lesion, and microscopic lesion were measured to mark scores according to the criterion. And they were fixed in 10% neutral formalin solution, and the tissue examination of lesion site was performed by general method to mark scores according to the criterion.
Macroscopic evaluation: We measured the number and the width of the ulcer and lesion area formed in the large intestine, by using modified Wallace's method (Can. J. Physiol. Pharmacol., 1988, 66: 422). We scored the lesion examined with the naked eye and compared the average value of each group. The standards of lesion scores as criterion of the damage of the colon by Wallace's method is as followings.
(§5) (0: normal, non-damaged, 1: congestion without ulcer 2: congestion and thickening of intestinal wall without ulcer, 3: an ulcer lesion without thickening of intestinal wall, 4: more than two ulcerous/inflammatory lesion, 5: more than two ulcerous/inflammatory lesion or the length of ulcerous/inflammatory lesion is more than 1 cm, 6-10: when the length of lesion is over 2 cm, one point increases everytime 1 cm of the length of ulcerous/inflammatory increases, for example, when the ulcer length is 3 cm, the point is 7.)

TNBS-induced colitis [5] = assay: TNBS-induced colitis model, oral administration; type: in vivo, male SD rats; conditions: for lesion scores: once a day for 13 days, rat; for adhesion degree / dilation and extention degree: score 0-3, rat
Procedure: as §3
as §4, with “7” for “The modified method of Shibata et al. (Dig. Endosc. 1993, 5: 13) was used. 7”
Clinical symptoms: Daily, we observed clinical symptoms and survival of the animals. And we measured the weight of the animals at the beginning day, third and eighth day of the experiment.
(0: non-adhesion, 1: adhesion exists but easily taken off by gloved hand, 2: more severe adhesion than 1 exists but easily taken off by scissors, 3: very severe adhesion exists, so it is difficult to be taken off by scissors because of possibility of its perforation.)
Degree of thickening and extension of the large intestine: We marked scores of the degree of thickness and extension of the large intestine according to the criterion, following the method of Kim et al., and compared with the average value of each group.
(0: lesion site non-existing, 1: a few degree of lesion, 2: intermediate degree of lesion, 3: severe degree of lesion)
We scored the lesion examined with the naked eye and compared the average value of each group. The standards of lesion scores as criterion of the damage of the colon by Wallace's method is as followings.
as §5
Microscopic evaluation: We trimmed the colon giving 3 cm interval from the rectum to the cecum, including the site of lesion examined with the naked eye, to make at least 4 specimens per an individual. […] When the lesion can not be examined with the naked eye, we trimmed the other specimen which has the lesion, with 3 cm interval.

cyclooxygenase [6] = assay: Cyclooxygenase activity in HUVEC (PGE2 synthesis); type: cell-based
Procedure: as §1, §2
**SC200 (μg/mL) : Concentration at increasing generation of […]

Question: `COc1ccc(-c2cc(=O)c3c(OC)cc(OCC(=O)O)cc3o2)cc1OC` [7-carboxymethyloxy-3',4',5-trimethoxy flavone] was tested. Which inhibition in vivo at 0.3 mg/kg [1] did it give?
Answer: 58%

Question: What about the inhibition in vivo at 1 mg/kg [1] of the same molecule?
Answer: 68%

Question: What about the inhibition in vivo at 3 mg/kg [1] of the same molecule?
Answer: 85%

Question: What about the “gastric mucus secretion, % Control” value (gastric mucus secretion; 0.3 mg/kg) of the same molecule?
Answer: 126.5 % Control

Question: What about the “gastric mucus secretion, % Control” value (gastric mucus secretion; 3 mg/kg) of the same molecule?
Answer: 122.8 % Control

Question: And the “gastric mucus secretion, % Control” value (gastric mucus secretion; 30 mg/kg)?
Answer: 117.9 % Control

Question: And the “SC200, concentration increasing generation of PGF1α to 200%” value (cyclooxygenase [2])?
Answer: 14.35 µg/mL

Question: And the IC50 (5-lipoxygenase)?
Answer: 35.5 µM

Question: With `COc1ccc(-c2cc(=O)c3c(OC)cc(OCC(=O)[O-])cc3o2)cc1OC.[Na+]` [7-carboxymethyloxy-3',4',5-trimethoxy flavone sodium salt] as the molecule, how does the “inhibiting% (gastric lesion)” value ([3]; 0.3 mg/kg p.o.) read?
Answer: 4%

Question: And the “inhibiting% (gastric lesion)” value ([3]; 3 mg/kg p.o.)?
Answer: 83%

Question: What about the “inhibiting% (gastric lesion)” value ([3]; 10 mg/kg p.o.) of the same molecule?
Answer: 80%

Question: What about the lesion scores (TNBS-induced colitis [4]; 0.3 mg/kg rectally) of the same molecule?
Answer: 4.43

Question: And the lesion scores (TNBS-induced colitis [4]; 3 mg/kg rectally)?
Answer: 0.86

Question: Which results are given for `COc1ccc(-c2cc(=O)c3c(OC)c(OC)c(OCC(=O)[O-])cc3o2)cc1OC.[Na+]` [7-carboxymethyloxy-3',4',5,6-tetramethoxy flavone sodium salt]?
Answer: inhibiting% (gastric lesion) ([3]; 0.3 mg/kg p.o.): 10%; inhibiting% (gastric lesion) ([3]; 3 mg/kg p.o.): 29%; inhibiting% (gastric lesion) ([3]; 10 mg/kg p.o.): 42%; lesion scores (TNBS-induced colitis [5]; 1 mg/kg p.o.): 1.3; adhesion degree (TNBS-induced colitis [5]; 1 mg/kg p.o.): 0.5; dilation and extention degree (TNBS-induced colitis [5]; 1 mg/kg p.o.): 0.3; lesion scores (TNBS-induced colitis [5]; 10 mg/kg p.o.): 0.8; adhesion degree (TNBS-induced colitis [5]; 10 mg/kg p.o.): 0.6; dilation and extention degree (TNBS-induced colitis [5]; 10 mg/kg p.o.): 0.4; lesion scores (TNBS-induced colitis [4]; 0.3 mg/kg rectally): 2.56; lesion scores (TNBS-induced colitis [4]; 3 mg/kg rectally): 2.60

Question: Which results are given for `COc1ccc(C2CC(=O)c3c(cc(O)c(OC)c3O)O2)cc1OC` (stereo not drawn) [5,7-dihydroxy-3',4',6-trimethoxy flavanone]?
Answer: inhibition in vivo at 0.3 mg/kg [1]: 5%; inhibition in vivo at 1 mg/kg [1]: 49%; inhibition in vivo at 3 mg/kg [1]: 56%; SC200, concentration increasing generation of PGF1α to 200% (cyclooxygenase [2]): 34.6 µg/mL; SC200, concentration increasing generation of PGE2 to 200% (cyclooxygenase [6]): 3.9 µg/mL

Question: `CCCCOc1c(OCC(=O)O)cc2oc(-c3ccc(OC)c(OC)c3)cc(=O)c2c1O` [7-carboxymethyloxy-5-hydroxy-6-n-butyloxy-3',4'-dimethoxy flavone] was tested. Which inhibition in vivo at 0.1 mg/kg ([1]; 0.1 mg/kg p.o.) did it give?
Answer: 43%

Question: What about the inhibition in vivo at 1 mg/kg [1] of the same molecule?
Answer: 61%

Question: And the inhibition in vivo at 10 mg/kg ([1]; 10 mg/kg p.o.)?
Answer: 63%

Question: What about the “SC200, concentration increasing generation of PGF1α to 200%” value (cyclooxygenase [2]) of the same molecule?
Answer: 2.41 µg/mL

Question: What about the IC50 (5-lipoxygenase) of the same molecule?
Answer: 26.3 µM

Question: For `CCCCCOc1cc2c(=O)cc(-c3ccc(OC)c(OC)c3)oc2cc1OCC(=O)O` [7-carboxymethyloxy-3',4'-dimethoxy-6-n-pentyloxy flavone], which IC50 (5-lipoxygenase) is on record?
Answer: 2.8 µM

Question: Which lesion scores (TNBS-induced colitis [4]; 1 mg/kg rectally) does the source give for `C[C@]12C=CC(=O)C=C1CC[C@@H]1[C@@H]2[C@@H](O)C[C@@]2(C)[C@H]1CC[C@]2(O)C(=O)CO` [prednisolone, reference compound] here?
Answer: 0.83
